Data reported in US9221795B2, “Phosphatidylinositol 3-kinase inhibitors” (Gilead Sciences, Inc., priority 2013, dated 2015).

What was measured:
[1] = Hepatocyte stability (parent drug disappearance in cryopreserved hepatocytes); type: in vitro ADME, human; conditions: human, cryopreserved human hepatocytes, 2 μM substrate, 37° C.; Table 2a
Method: (§1) This assay was used to evaluate the metabolic stability of test articles (TA) following incubation in cryopreserved hepatocytes by monitoring parent drug disappearance via LC/MC. The TA was incubated with 1 million hepatocytes/mL at 2 μM substrate in duplicate. The incubation was carried out at 37° C. with 5% CO2 and saturating humidity. Samples were taken at 0, 1, 2, and 4 hours to monitor the disappearance of TA and a half-life (t1/2) was determined. Table 3 below summarizes the human hepatocyte t1/2 values (hours) collected in the Example.

[2] = molecular target: PI3Kδ (Homo sapiens (Human), UniProt O00329); test: Enzymatic activity of PI3K isoforms, TR-FRET assay (PI3Kδ); type: biochemical; conditions: 2× Km ATP, geometric mean if more than one value
Summary of the method: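 Recombinant heterodimeric PI3Kβ or PI3Kδ (25-50 pM) was run with 2 μM PIP2 and 2× Km ATP (75-500 μM) at pH 7.4, for 30 min at 25° C. PIP3 formation was detected by TR-FRET displacement of labeled PIP3 from Eu-GRP-1. IC50 values in nM come from four-parameter fits, as geometric means.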

[3] = molecular target: PI3Kβ (Homo sapiens (Human), UniProt P42338); test: Enzymatic activity of PI3K isoforms, TR-FRET assay (PI3Kβ); type: biochemical; conditions: 2× Km ATP, geometric mean if more than one value
Method: Enzymatic activity of the class I PI3K isoforms in the presence of the compounds of Table 1 and Compounds X, Y and Z was measured using a time-resolved fluorescence resonance energy transfer (TR-FRET) assay. The TR-FRET assay was used to monitor formation of the product 3,4,5-inositol triphosphate molecule (PIP3) as it competed with fluorescently labeled PIP3 for binding to the GRP-1 pleckstrin homology domain protein. An increase in […] product results in a decrease in TR-FRET signal as the labeled fluorophore is displaced from the GRP-1 protein binding site.
Class I PI3K isoforms were expressed and purified as heterodimeric recombinant proteins. All assay reagents and buffers for the TR-FRET assay were purchased from Millipore. PI3K isoforms were assayed under initial rate conditions in the presence of 25 mM Hepes (pH 7.4), and 2× Km ATP (75-500 μM), 2 μM PIP2, 5% glycerol, 5 mM MgCl2, 50 mM NaCl, 0.05% (v/v) Chaps, 1 mM dithiothreitol, 1% (v/v) DMSO at the following concentrations for each isoforms: PI3Kα, PI3Kβ, and PI3Kδ between 25 and 50 pM, and PI3Kγ at 2 nM. After an assay reaction time of 30 minutes at 25° C., reactions were terminated with a final concentration of 10 mM EDTA, 10 nM labeled-PIP3, and 35 nM Europium labeled GRP-1 detector protein before reading TR-FRET on an Envision plate reader (Ex: 340 nm; Em: 615/665 nm; […] delay and 500 μs read window).
Data were normalized based on positive ([…] wortmanin) and negative (DMSO) controls. α, β, δ, and γ IC50 values were calculated from the fit of the dose-response curves to a four-parameter equation. All IC50 values represent geometric mean values if more than one value was obtained. IC50 values were reported in units of nM.

[4] = system: basophils; test: Basophil activation in human whole blood (Flow2 CAST kit, CD63 flow cytometry); type: cell-based; conditions: Homo sapiens, human whole blood, basophils activated with anti-FcεRI mAb or fMLP, percent CD63 positive cells
[5] = system: cryopreserved human hepatocytes; test: Hepatocyte stability (parent drug disappearance in cryopreserved hepatocytes); type: in vitro ADME; conditions: human hepatocytes, 2 μM substrate, 37° C.
Method: as §1

Chain of PI3Kβ (P42338 whole entry, the tested form may be a part, canonical isoform): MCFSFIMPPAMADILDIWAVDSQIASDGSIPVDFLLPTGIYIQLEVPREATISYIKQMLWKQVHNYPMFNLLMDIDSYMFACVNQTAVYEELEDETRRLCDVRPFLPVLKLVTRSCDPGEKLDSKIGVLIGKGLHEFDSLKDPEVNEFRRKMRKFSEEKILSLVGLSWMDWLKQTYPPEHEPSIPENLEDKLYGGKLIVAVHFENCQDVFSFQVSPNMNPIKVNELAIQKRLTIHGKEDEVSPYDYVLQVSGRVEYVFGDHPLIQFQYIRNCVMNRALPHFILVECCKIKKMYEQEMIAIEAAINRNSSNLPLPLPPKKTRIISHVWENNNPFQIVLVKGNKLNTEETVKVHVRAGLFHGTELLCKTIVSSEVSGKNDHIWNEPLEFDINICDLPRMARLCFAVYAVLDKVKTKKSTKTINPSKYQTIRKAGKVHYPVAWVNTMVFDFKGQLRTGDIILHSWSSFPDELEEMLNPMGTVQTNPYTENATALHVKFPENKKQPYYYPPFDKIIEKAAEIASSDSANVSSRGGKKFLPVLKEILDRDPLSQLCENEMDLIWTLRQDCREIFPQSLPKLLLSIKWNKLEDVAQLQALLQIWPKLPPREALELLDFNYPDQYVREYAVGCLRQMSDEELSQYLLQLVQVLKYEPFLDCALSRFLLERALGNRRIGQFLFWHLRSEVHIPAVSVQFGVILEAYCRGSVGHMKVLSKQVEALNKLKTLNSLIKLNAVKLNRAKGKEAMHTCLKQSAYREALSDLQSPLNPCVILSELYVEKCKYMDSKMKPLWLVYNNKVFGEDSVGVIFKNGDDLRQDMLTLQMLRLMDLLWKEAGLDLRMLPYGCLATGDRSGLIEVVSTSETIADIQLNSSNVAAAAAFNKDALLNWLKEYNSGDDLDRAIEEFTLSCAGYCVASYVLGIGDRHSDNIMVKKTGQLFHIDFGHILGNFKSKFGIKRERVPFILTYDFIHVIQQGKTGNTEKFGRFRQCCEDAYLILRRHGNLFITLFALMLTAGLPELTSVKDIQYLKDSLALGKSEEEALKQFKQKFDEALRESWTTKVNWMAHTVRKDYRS
Chain of PI3Kβ (P27986 whole entry partner, the tested form may be a part, canonical isoform): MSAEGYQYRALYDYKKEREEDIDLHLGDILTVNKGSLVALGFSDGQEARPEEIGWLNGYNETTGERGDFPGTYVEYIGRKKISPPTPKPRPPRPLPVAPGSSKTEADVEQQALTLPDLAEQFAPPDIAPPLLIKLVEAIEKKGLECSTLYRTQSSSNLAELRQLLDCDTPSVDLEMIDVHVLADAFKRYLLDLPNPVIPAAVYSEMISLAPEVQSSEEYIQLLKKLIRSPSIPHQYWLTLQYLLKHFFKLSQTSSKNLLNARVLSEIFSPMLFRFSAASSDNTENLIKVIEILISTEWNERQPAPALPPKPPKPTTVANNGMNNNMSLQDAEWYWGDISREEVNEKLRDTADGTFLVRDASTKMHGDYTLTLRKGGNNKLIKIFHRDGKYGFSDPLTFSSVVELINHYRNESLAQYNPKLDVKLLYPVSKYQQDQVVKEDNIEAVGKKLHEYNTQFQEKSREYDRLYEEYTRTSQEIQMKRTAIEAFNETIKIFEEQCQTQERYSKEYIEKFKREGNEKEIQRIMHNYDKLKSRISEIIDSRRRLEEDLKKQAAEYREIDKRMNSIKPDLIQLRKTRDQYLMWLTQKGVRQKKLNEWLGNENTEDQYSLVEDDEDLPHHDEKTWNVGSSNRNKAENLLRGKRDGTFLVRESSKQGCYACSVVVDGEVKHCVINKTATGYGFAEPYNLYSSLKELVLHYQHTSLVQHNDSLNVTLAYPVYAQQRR
Chain of PI3Kδ (O00329 whole entry, canonical isoform): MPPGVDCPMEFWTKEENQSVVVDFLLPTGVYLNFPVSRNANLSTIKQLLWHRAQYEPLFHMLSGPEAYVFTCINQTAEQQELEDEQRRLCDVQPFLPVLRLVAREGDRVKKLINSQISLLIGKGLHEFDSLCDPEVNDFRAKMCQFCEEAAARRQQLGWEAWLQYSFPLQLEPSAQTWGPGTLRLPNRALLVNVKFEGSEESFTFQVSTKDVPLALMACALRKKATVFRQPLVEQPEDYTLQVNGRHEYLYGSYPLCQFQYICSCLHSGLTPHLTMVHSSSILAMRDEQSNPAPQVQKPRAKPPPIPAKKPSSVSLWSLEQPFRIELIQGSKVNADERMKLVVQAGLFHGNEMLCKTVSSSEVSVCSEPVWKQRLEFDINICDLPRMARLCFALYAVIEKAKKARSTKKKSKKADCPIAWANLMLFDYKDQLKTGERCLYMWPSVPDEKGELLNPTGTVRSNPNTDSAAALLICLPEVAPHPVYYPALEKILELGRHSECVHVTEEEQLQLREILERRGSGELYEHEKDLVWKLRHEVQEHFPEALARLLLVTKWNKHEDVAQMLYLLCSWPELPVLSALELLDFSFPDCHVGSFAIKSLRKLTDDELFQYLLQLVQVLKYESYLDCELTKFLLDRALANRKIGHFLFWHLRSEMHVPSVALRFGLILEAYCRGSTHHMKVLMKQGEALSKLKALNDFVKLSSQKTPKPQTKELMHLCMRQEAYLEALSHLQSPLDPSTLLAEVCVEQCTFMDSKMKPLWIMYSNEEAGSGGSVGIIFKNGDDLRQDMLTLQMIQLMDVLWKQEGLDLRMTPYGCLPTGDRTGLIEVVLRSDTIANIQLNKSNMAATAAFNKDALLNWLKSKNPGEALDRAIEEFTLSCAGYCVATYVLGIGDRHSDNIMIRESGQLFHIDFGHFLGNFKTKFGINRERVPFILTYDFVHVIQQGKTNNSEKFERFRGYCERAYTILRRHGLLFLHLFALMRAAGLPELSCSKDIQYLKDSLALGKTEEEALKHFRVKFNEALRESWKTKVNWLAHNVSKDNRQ
Chain of PI3Kδ (P27986 whole entry partner, canonical isoform): as the sequence (P27986 whole entry partner, the tested form may be a part, canonical isoform) above

Row | Compound | half-life at 2 μM [1] [h] | IC50 [2] [nM] | IC50 [3] [nM] | EC50 ([4]; class symbol) [nM] | EC50 ([4]; geometric mean) [nM] | t1/2 ([5]; class symbol) | t1/2 ([5]; Table 3) [h]
1 | C[C@H](Nc1nc(N)nc(N)c1C#N)c1nc2c(Cl)ccc(Cl)c2c(=O)n1-c1ccc(N)nc1 [Compound 84, (S)-2,4-diamino-6-((1-(3-(6-aminopyridin-3-yl)-5,8-dichloro-4-oxo-3,4-dihydroquinazolin-2-yl)ethyl)amino)pyrimidine-5-carbonitrile] | 10 | 0.5 | 1 |  |  |  | 
2 | C[C@H](Nc1nc(N)nc(N)c1Cl)c1nc2cccc(Cl)c2c(=O)n1-c1ccc(N)nc1 [Compound 85, (S)-3-(6-aminopyridin-3-yl)-5-chloro-2-(1-((2,6-diamino-5-chloropyrimidin-4-yl)amino)ethyl)quinazolin-4(3H)-one] | > 10 | 3 | 9 |  |  |  | 
3 | C[C@H](Nc1nc(N)nc(N)c1Cl)c1nc2c(F)ccc(Cl)c2c(=O)n1-c1ccc(N)nc1 [Compound 88, (S)-3-(6-aminopyridin-3-yl)-5-chloro-2-(1-((2,6-diamino-5-chloropyrimidin-4-yl)amino)ethyl)-8-fluoroquinazolin-4(3H)-one] | > 10 | 6 | 11 |  |  |  | 
4 | Cc1cc(N)ncc1-n1c([C@H](C)Nc2nc(N)nc(N)c2C#N)nc2c(Cl)ccc(Cl)c2c1=O (atropisomer, axis not shown) [Compound 96, (S)-2,4-diamino-6-((1-(3-(6-amino-4-methylpyridin-3-yl)-5,8-dichloro-4-oxo-3,4-dihydroquinazolin-2-yl)ethyl)amino)pyrimidine-5-carbonitrile] | 4 | 1 | 3 |  |  |  | 
5 | C[C@H](Nc1nc(N)nc(N)c1C#N)c1nc2c(Cl)cc(F)cc2c(=O)n1-c1ccc(N)nc1 [Compound 82, (S)-2,4-diamino-6-((1-(3-(6-aminopyridin-3-yl)-8-chloro-6-fluoro-4-oxo-3,4-dihydroquinazolin-2-yl)ethyl)amino)pyrimidine-5-carbonitrile] | > 10 | 5 | 5 |  |  |  | 
6 | CC[C@H](Nc1nc(N)nc(N)c1C#N)c1nc2cccc(Cl)c2c(=O)n1-c1ccc(N)nc1 [Compound 87, (S)-2,4-diamino-6-((1-(3-(6-aminopyridin-3-yl)-5-chloro-4-oxo-3,4-dihydroquinazolin-2-yl)propyl)amino)pyrimidine-5-carbonitrile] | > 10 | 0.6 | 0.8 |  |  |  | 
7 | Cc1cc(N)ncc1-n1c([C@H](C)Nc2nc(N)nc(N)c2C#N)nc2c(Cl)ccc(Cl)c2c1=O (atropisomer, axis not shown) [Compound 95, (S)-2,4-diamino-6-((1-(3-(6-amino-4-methylpyridin-3-yl)-5,8-dichloro-4-oxo-3,4-dihydroquinazolin-2-yl)ethyl)amino)pyrimidine-5-carbonitrile] |  | 4 | 28 |  |  |  | 

Results, then the molecule that gave them:

Row | half-life at 2 μM [1] [h] | IC50 [2] [nM] | IC50 [3] [nM] | EC50 ([4]; class symbol) [nM] | EC50 ([4]; geometric mean) [nM] | t1/2 ([5]; class symbol) | t1/2 ([5]; Table 3) [h] | Compound
8 | > 10 | 0.8 | 0.7 |  |  |  |  | C[C@H](Nc1nc(N)nc(N)c1C#N)c1nc2cccc(Cl)c2c(=O)n1-c1ccc(N)nc1 [Compound 97, (S)-2,4-diamino-6-((1-(3-(6-aminopyridin-3-yl)-5-chloro-4-oxo-3,4-dihydroquinazolin-2-yl)ethyl)amino)pyrimidine-5-carbonitrile]
9 |  | 0.5 |  | < 1 | 0.4 | ***** (***** = >10 h) | >10 | Cc1c(F)cncc1-n1c([C@H](C)Nc2nc(N)nc(N)c2C#N)nc2cccc(Cl)c2c1=O (atropisomer, axis not shown) [Compound 47, (S)-2,4-diamino-6-(1-(5-chloro-3-(5-fluoro-4-methylpyridin-3-yl)-4-oxo-3,4-dihydroquinazolin-2-yl)ethylamino)pyrimidine-5-carbonitrile]
10 | 10 | 0.5 | 1 |  |  |  |  | Cc1cc(N)ncc1-n1c([C@H](C)Nc2nc(N)nc(N)c2C#N)nc2cccc(Cl)c2c1=O (atropisomer, axis not shown) [Compound 94, (S)-2,4-diamino-6-((1-(3-(6-amino-4-methylpyridin-3-yl)-5-chloro-4-oxo-3,4-dihydroquinazolin-2-yl)ethyl)amino)pyrimidine-5-carbonitrile]
11 | 4 | 0.8 | 1 |  |  |  |  | CC[C@H](Nc1nc(N)nc(N)c1C#N)c1nc2cccc(Cl)c2c(=O)n1-c1cnc(N)cc1C (atropisomer, axis not shown) [Compound 92, (S)-2,4-diamino-6-((1-(3-(6-amino-4-methylpyridin-3-yl)-5-chloro-4-oxo-3,4-dihydroquinazolin-2-yl)propyl)amino)pyrimidine-5-carbonitrile]
